Source: US20090247520A1, “INHIBITORS OF ANTIGEN RECEPTOR-INDUCED NF-kappa B ACTIVATION” (The Burnham Institute for Medical Research, priority 2008, published 2009)
“Also recorded” adds a separate entry of the source. Like-named read-outs stand apart in the source and are kept apart here.

Legend:
Assay type in all cases: cell-based
[1] = test system: LPS (TLR4 agonist) induced IL-6 production; experiment: IL-6 production by THP.1 monocytes stimulated with LPS; conditions: listed as CID-2858522
From the text: (§1) FIG. 1 is a flow chart of screening and counter-screenings for selective inhibitors of antigen-receptor induced NF-κB pathway. A total of 114,889 compounds were screened. From a screen of 53,280 commercially available compounds (left column), 519 hits were obtained, of which 248 reconfirmed using the same primary screening assay. […] From these 11 active compounds, one hit, CID-2858522, inhibited PMA/Ionomycin-induced production of cytokine IL-8 by the HEK293 cell line. CID-2858522 was then characterized (right column). PDB was substituted for PMA to confirm suppression of an alternative PKC activator. Pathway selectivity was assessed using panels of cell lines, starting with HEK293 cells in which each of the remaining NF-κB activation pathways was stimulated, showing inhibition only of PMA/Ionomycin-induced NF-κB reporter gene activity (panel 1). […]

[2] = test system: Anti-Lymphotoxin-β induced NF-κB luciferase activity; experiment: NF-κB luciferase in HeLa cells induced by anti-Lymphotoxin-β receptor; conditions: listed as CID-2858522
From the text: as §1

[3] = test system: PMA/Ionomycin-induced NF-κB reporter gene activity; experiment: NF-κB luciferase reporter gene assay, PMA/Ionomycin-stimulated HEK293-NF-κB-luc cells
From the text: The strategy for compound library screening entailed using phorbol ester (phorbol myristic acetate [PMA]) and Ca^2+-ionophore Ionomycin to achieve PKC activation, mimicking the initiating events in the antigen receptor pathway. For convenience, we used HEK293 epithelial cells, in which it has previously been shown by siRNA-mediated gene silencing and transfection of dominant-negative mutants that PMA/Ionomycin-induced NF-κB activation is dependent on CARMA1, Bcl-10, and MALT. HEK293 cells were stably transfected with a luciferase reporter gene driven by a NF-κB responsive promoter, and the responsiveness of this integrated promoter to various NF-κB inducing stimuli was confirmed, including PMA/Ionomycin and TNF. Using these cells, 96- and 384-well plate-based high throughput screening (HTS) assays were established, with good assay performance characteristics (Z′>0.5) (PubChem AID=1384). We initially screened 53,280 chemical compounds at an average concentration of 5 μM, of which 519 primary hits were obtained (based on cut-off of 50% inhibition). Of these, 248 confirmed upon repeat testing (FIG. 1).
Cell engineering. HEK293 cells were co-transfected with pUC13-4xNFκB-Luc and p-TK-puromycin-resistance plasmids. Stable clones were selected by culture in Dulbecco's Modified Eagle's Media (InVitrogen) supplemented with 10% heat-inactivated fetal bovine serum (FBS) (Hyclone), 1% v/v penicillin-streptomycin (InVitrogen) containing 1 μg/mL puromycin. Individual clones were tested for responsiveness to PMA/Ionomycin- and to TNF-induced NF-κB reporter gene activity, and a clone was selected for HTS.
HTS. NF-κB-luciferase expressing HEK293 cells were seeded at […] per well in white 96 well plates (Greiner Bio-One) in 90 μl of DMEM and incubated overnight. 10 μl of compound-containing solution was added to each well (final 1.5 μg/mL in 1% DMSO) using a liquid handler (Biomek™ FX; Beckman Coulter). After 2 h incubation, cells were stimulated using 11 μl of a PMA (final 100 ng/mL; Calbiochem) and ionomycin (final 50 ng/mL; Calbiochem) in DMEM. Cell plates were incubated for 16 h before media was removed and 40 μl of 0.5× passive lysis buffer (Promega Corp.) was added to cell plates. Plates were allowed to stand at room temperature for at least 15 minutes before adding 40 μl of 0.125× luciferin substrate (Promega Corp.) to each well. Plates were analyzed within 30 seconds with a Criterion Analyst™ using the luminescence method (0.1 second read/well).
Several compounds synthesized by the methods described herein were tested for their efficacy at inhibiting Nf-κB activation.

[4] = test system: HEK293 cells; experiment: Cell viability assay (ATPlite), HEK293 cells
Method: Cell viability assay. Cell viability was estimated based on cellular ATP levels, measured using ATPlite kit (Perkin Elmer). Cells at a density of 10^5/mL were seeded at 90 μL per well in 96-well white plates and cultured overnight. Compounds were added (5 μL in medium) to wells and cells were cultured for […], Finally, 50 μL ATPlite solution was added to each well and luminescence activity was read using a luminometer (LJL Biosystems, Sunnyvale, Calif.).

Cc1cc2nc(NCCCO)n(CC(=O)c3cc(C(C)(C)C)c(O)c(C(C)(C)C)c3)c2cc1C [Compound 1, 2-(2-(3-Hydroxypropylamino)-5,6-dimethyl-1H-benzo[d]imidazol-1-yl)-1-(3,5-di-tert-butyl-4-hydroxyphenyl)ethanone]
suppression of IL-6 production, LPS-stimulated THP.1 [1]: failed to inhibit; also recorded: did not suppress | suppression of NF-κB luciferase, anti-Lymphotoxin-β in HeLa [2]: failed to inhibit; also recorded: did not suppress | IC50 ([3]; Homo sapiens, HEK293 cell line, PMA/Ionomycin, read-out: IC50, suppression of NF-κB reporter gene activity): ~70 nM | IC50 ([3]; Homo sapiens, PMA/Ionomycin / PKC activators, HEK293, read-out: IC50, NF-κB reporter gene assay (cellular potency)): < 100 nM | concentration at which maximum inhibition of NF-κB reporter is achieved ([3]; PMA/Ionomycin, HEK293): 0.25 to 0.5 µM | IC50 ([3]; Table II, read-out: IC50, Inhibition of antigen receptor-mediated Nf-κB): 70 nM | concentrations not toxic to HEK293 cells [4]: ≤ 8 µM
